# In US4032659A (priority 1975, dated 1977):
# “Also recorded” adds a separate entry of the source. Like-named read-outs stand apart in the source and are kept apart here.
# Legend:
# [1] = tested on: Influenza B Maryland virus; test: Chemoprophylaxis of Influenza B Maryland virus infection in mice; format: in vivo, mouse; conditions: for No. animals surviving when 18/20 of controls are dead / Survivors: oral
# pox virus = test: Pox virus infections of mice; conditions: mouse, in vivo
# virus infections = test: Antiviral screening program, several viruses; conditions: mouse, in vivo
# [2] = tested on: Influenza Ann Arbor virus; test: Chemoprophylaxis of Influenza Ann Arbor (A1) virus infection in mice; format: in vivo, mouse; conditions: oral
# Herpes virus = format: in vivo, mouse
# Influenza PR 8 virus = test: Chemoprophylaxis of Influenza PR 8 virus infection in mice; format: in vivo, mouse; conditions: drinking water 24 h pre- and 24 h post-infection
# Vaccinia virus = format: in vivo; conditions: scarified rabbit skin
# Columbia SK Polio virus = conditions: mouse, in vivo
smiles,measurement,setting,value
"CN1C(=O)/C(=N\NC(N)=S)c2ccccc21 [Methisazone, 1-methylindole-2,3-dione,3-thiosemicarbazone, reference compound]",activity,"[1]; mouse, in vivo",active against Influenza B Maryland virus
same,No. animals surviving when 18/20 of controls are dead,[1]; total dose 6 ng,4
same,Survivors,[1]; total dose 6 ng,2
same,No. animals surviving when 18/20 of controls are dead,[1]; total dose 60 ng,4
same,Survivors,[1]; total dose 60 ng,2
same,No. animals surviving when 18/20 of controls are dead,[1]; total dose 600 ng,2
same,Survivors,[1]; total dose 600 ng,2
same,No. animals surviving when 18/20 of controls are dead,[1]; total dose 6 μg,4
same,Survivors,[1]; total dose 6 μg,1
same,activity,pox virus,active against pox virus infections of mice
same,activity (in words),virus infections,found to have activity
same,No. animals surviving after 5 days,[2]; total dose 5 μg,4
same,Survivors,[2]; total dose 5 μg,0
same,No. animals surviving after 5 days,[2]; total dose 50 μg,3
same,Survivors,[2]; total dose 50 μg,0
same,No. animals surviving after 5 days,[2]; total dose .00005 μg,6
same,Survivors,[2]; total dose .00005 μg,0
same,No. animals surviving after 5 days,[2]; total dose .0005 μg,5
same,Survivors,[2]; total dose .0005 μg,0
same,No. animals surviving after 5 days,[2]; total dose .005 μg,5
same,Survivors,[2]; total dose .005 μg,0
same,No. animals surviving after 5 days,[2]; total dose .05 μg,4
same,Survivors,[2]; total dose .05 μg,0
same,No. animals surviving after 5 days,[2]; total dose .5 μg,6
same,Survivors,[2]; total dose .5 μg,0
same,No. animals surviving after 6 days,"Herpes virus; mouse, in vivo, po",1
same,No. animals surviving after 6 days,"Herpes virus; oral, total dose .00005 μg",0
same,No. animals surviving after 6 days,"Herpes virus; oral, total dose .0005 μg",0
same,No. animals surviving after 6 days,"Herpes virus; oral, total dose .005 μg",0
same,Survivors,"Herpes virus; oral, total dose .05 μg",0
CCC(C)=NNC(N)=S [thiosemicarbazone],protection against death,Influenza PR 8 virus,significantly protected against death
same,effect on pox formation,Vaccinia virus,dramatic reduction and even elimination of all pox formation over several dilutions; also recorded: highly significant diminution of pox formation
same,statistically significant geometric mean survival time,Columbia SK Polio virus,two instances of a statistically significant geometric mean survival time
